Experimental data from patent US6355799B1, “Substituted benzene compounds, process for their preparation, and herbicidal and defoliant compositions containing them” (ISK Americas Incorporated, priority 1997, dated 2002).

Legend:
Format in all cases: in vivo
[1] = system: redroot pigweed (Amaranthus retroflexus, AMARE); assay: Pre-emerge test, greenhouse herbicide activity screening; conditions: pre-emerge, rated 14 days after application, 0 = no damage, 100 = complete death
In short: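 Compounds in acetone were track-sprayed at 15-1000 g ai/ha (187 l/ha) on sandy loam pots: pre-emerge one day after seeding, post-emerge at 2-3 leaf stage with 0.25% v/v non-ionic surfactant. Phytotoxicity was rated 14 days later on a 0 (no damage) to 100 (complete death) scale.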

[2] = system: barnyardgrass (Echinochloa crus-galli, ECHCG); assay: as above; conditions: pre-emerge, rated 14 days after application, 0 = no damage, 100 = complete death
In short: (§1)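 Compounds in acetone were track-sprayed at 187 l/ha, 15–1000 g ai/ha, onto sandy loam pots. Pre-emerge seeds were sown one day before spraying, with surface watering afterwards. Post-emerge plants were at the 2–3 leaf stage and sprayed with 0.25% v/v non-ionic surfactant. Injury was rated 0–100 at 14 days.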

[3] = system: green foxtail (Setaria viridis, SETVI); assay: as above; conditions: pre-emerge, rated 14 days after application, 0 = no damage, 100 = complete death
In short: as §1

[4] = system: ivyleaf morningglory (Ipomoea hederacea, IPOHE); assay: as above; conditions: pre-emerge, rated 14 days after application, 0 = no damage, 100 = complete death
In short: as §1

[5] = system: johnsongrass (Sorghum halepense, SORHA); assay: as above; conditions: pre-emerge, rated 14 days after application, 0 = no damage, 100 = complete death
In short: as §1

[6] = system: lambsquarters (Chenopodium album, CHEAL); assay: as above; conditions: pre-emerge, rated 14 days after application, 0 = no damage, 100 = complete death
In short: as §1

[7] = system: large crabgrass (Digitaria sanguinalis, DIGSA); assay: as above; conditions: pre-emerge, rated 14 days after application, 0 = no damage, 100 = complete death
In short: as §1

[8] = system: sicklepod (Cassia obtusifolia, CASOB); assay: as above; conditions: pre-emerge, rated 14 days after application, 0 = no damage, 100 = complete death
In short: as §1

[9] = system: velvetleaf (Abutilon theophrasti, ABUTH); assay: as above; conditions: pre-emerge, rated 14 days after application, 0 = no damage, 100 = complete death
In short: as §1

[10] = system: field corn (Zea mays L., var. Dekalb 535, CORN); assay: Pre-emerge test, crop safety; conditions: pre-emerge, rated 14 days after application, 0 = no damage, 100 = complete death
In short: (§2)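 Fourteen days after spraying, crop and weed injury was graded visually from 0, no effect, to 100, every plant dead. Test substances were dissolved in acetone and applied at 15–1000 g ai/ha with a flat-fan nozzle. Application was either pre-emergence, one day after sowing, or post-emergence at the 2–3 leaf stage.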

[11] = system: upland rice (Oryza sp., var. Tebonnet, RICE); assay: Pre-emerge test, crop safety; conditions: pre-emerge, rated 14 days after application, 0 = no damage, 100 = complete death
In short: as §2

[12] = system: barnyardgrass (Echinochloa crus-galli, ECHCG); assay: Post-emerge test, greenhouse herbicide activity screening; conditions: 14 days after application; for Post-emerge Herbicidal Activity ECHCG: phytotoxicity rating 0-100 (0 no damage, 100 complete death); for phytotoxicity rating ECHCG: post-emerge, rating scale 0-100
In short: (§3)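 Compounds in acetone were track-sprayed at 15–1000 g ai/ha: pre-emergence onto soil sown the previous day, then top-watered to incorporate and later bottom-watered; post-emergence onto 2–3 leaf plants with 0.25% v/v surfactant, bottom-watered only. Ratings on a 0–100 phytotoxicity scale were taken at day 14.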

[13] = system: common ragweed (Ambrosia artemisizfolia L., AMBEL); assay: as above; conditions: post-emerge, 14 days after application, rating scale 0-100
In short: as §3

[14] = system: green foxtail (Setaria viridis, SETVI); assay: as above; conditions: 14 days after application; for Post-emerge Herbicidal Activity SETVI: phytotoxicity rating 0-100 (0 no damage, 100 complete death); for phytotoxicity rating SETVI: post-emerge, rating scale 0-100
In short: as §3

[15] = system: ivyleaf morningglory (Ipomoea hederacea, IPOHE); assay: as above; conditions: 14 days after application; for Post-emerge Herbicidal Activity IPOHE: phytotoxicity rating 0-100 (0 no damage, 100 complete death); for phytotoxicity rating IPOHE: post-emerge, rating scale 0-100
In short: as §3

[16] = system: johnsongrass (Sorghum halepense, SORHA); assay: as above; conditions: 14 days after application; for Post-emerge Herbicidal Activity SORHA: phytotoxicity rating 0-100 (0 no damage, 100 complete death); for phytotoxicity rating SORHA: post-emerge, rating scale 0-100
In short: as §3

[17] = system: lambsquarters (Chenopodium album, CHEAL); assay: as above; conditions: 14 days after application; for Post-emerge Herbicidal Activity CHEAL: phytotoxicity rating 0-100 (0 no damage, 100 complete death); for phytotoxicity rating CHEAL: post-emerge, rating scale 0-100
In short: as §3

[18] = system: large crabgrass (Digitaria sanguinalis, DIGSA); assay: as above; conditions: 14 days after application; for Post-emerge Herbicidal Activity DIGSA: phytotoxicity rating 0-100 (0 no damage, 100 complete death); for phytotoxicity rating DIGSA: post-emerge, rating scale 0-100
In short: as §3

[19] = system: redroot pigweed (Amaranthus retroflexus, AMARE); assay: as above; conditions: 14 days after application; for Post-emerge Herbicidal Activity AMARE: phytotoxicity rating 0-100 (0 no damage, 100 complete death); for phytotoxicity rating AMARE: post-emerge, rating scale 0-100
In short: as §3

[20] = system: sicklepod (Cassia obtusifolia, CASOB); assay: as above; conditions: 14 days after application; for Post-emerge Herbicidal Activity CASOB: phytotoxicity rating 0-100 (0 no damage, 100 complete death); for phytotoxicity rating CASOB: post-emerge, rating scale 0-100
In short: as §3

[21] = system: velvetleaf (Abutilon theophrasti, ABUTH); assay: as above; conditions: 14 days after application; for Post-emerge Herbicidal Activity ABUTH: phytotoxicity rating 0-100 (0 no damage, 100 complete death); for phytotoxicity rating ABUTH: post-emerge, rating scale 0-100
In short: as §3

[22] = system: field corn (Zea mays L., var. Dekalb 535, CORN); assay: Post-emerge test, crop safety; conditions: 14 days after application; for Post-emerge Herbicidal Activity CORN (crop damage): phytotoxicity rating 0-100 (0 no damage, 100 complete death); for phytotoxicity rating CORN: post-emerge, rating scale 0-100
In short: as §1

[23] = system: upland rice (Oryza sp., var. Tebonnet, RICE); assay: Post-emerge test, crop safety; conditions: 14 days after application; for Post-emerge Herbicidal Activity RICE (crop damage): phytotoxicity rating 0-100 (0 no damage, 100 complete death); for phytotoxicity rating RICE: post-emerge, rating scale 0-100
In short: as §1

Structure (SMILES): COc1c(Cl)cc(F)c(-n2c(=O)cc(C(F)(F)F)n(C)c2=O)c1NC(=O)CC#N [2-14]
- Pre-emerge Herbicidal Activity AMARE (phytotoxicity rating, scale 0-100) ([1]; 63 g ai/ha): 50
- Pre-emerge Herbicidal Activity AMARE (phytotoxicity rating, scale 0-100) ([1]; 250 g ai/ha): 100
- Pre-emerge Herbicidal Activity ECHCG (phytotoxicity rating, scale 0-100) ([2]; 63 g ai/ha): 0
- Pre-emerge Herbicidal Activity ECHCG (phytotoxicity rating, scale 0-100) ([2]; 250 g ai/ha): 0
- Pre-emerge Herbicidal Activity SETVI (phytotoxicity rating, scale 0-100) ([3]; 63 g ai/ha): 60
- Pre-emerge Herbicidal Activity SETVI (phytotoxicity rating, scale 0-100) ([3]; 250 g ai/ha): 100
- Pre-emerge Herbicidal Activity IPOHE (phytotoxicity rating, scale 0-100) ([4]; 63 g ai/ha): 0
- Pre-emerge Herbicidal Activity IPOHE (phytotoxicity rating, scale 0-100) ([4]; 250 g ai/ha): 100
- Pre-emerge Herbicidal Activity SORHA (phytotoxicity rating, scale 0-100) ([5]; 63 g ai/ha): 0
- Pre-emerge Herbicidal Activity SORHA (phytotoxicity rating, scale 0-100) ([5]; 250 g ai/ha): 30
- Pre-emerge Herbicidal Activity CHEAL (phytotoxicity rating, scale 0-100) ([6]; 63 g ai/ha): 50
- Pre-emerge Herbicidal Activity CHEAL (phytotoxicity rating, scale 0-100) ([6]; 250 g ai/ha): 100
- Pre-emerge Herbicidal Activity DIGSA (phytotoxicity rating, scale 0-100) ([7]; 63 g ai/ha): 0
- Pre-emerge Herbicidal Activity DIGSA (phytotoxicity rating, scale 0-100) ([7]; 250 g ai/ha): 20
- Pre-emerge Herbicidal Activity CASOB (phytotoxicity rating, scale 0-100) ([8]; 63 g ai/ha): 0
- Pre-emerge Herbicidal Activity CASOB (phytotoxicity rating, scale 0-100) ([8]; 250 g ai/ha): 60
- Pre-emerge Herbicidal Activity ABUTH (phytotoxicity rating, scale 0-100) ([9]; 63 g ai/ha): 90
- Pre-emerge Herbicidal Activity ABUTH (phytotoxicity rating, scale 0-100) ([9]; 250 g ai/ha): 100
- Pre-emerge crop damage CORN (phytotoxicity rating, scale 0-100) ([10]; 63 g ai/ha): 0
- Pre-emerge crop damage CORN (phytotoxicity rating, scale 0-100) ([10]; 250 g ai/ha): 0
- Pre-emerge crop damage RICE (phytotoxicity rating, scale 0-100) ([11]; 63 g ai/ha): 0
- Pre-emerge crop damage RICE (phytotoxicity rating, scale 0-100) ([11]; 250 g ai/ha): 30
- Post-emerge Herbicidal Activity ECHCG ([12]; 63 g ai/ha): 0
- Post-emerge Herbicidal Activity ECHCG ([12]; 250 g ai/ha): 0
- phytotoxicity rating ECHCG ([12]; 63 g ai/ha): 30
- phytotoxicity rating ECHCG ([12]; 250 g ai/ha): 40
- phytotoxicity rating AMBEL ([13]; 63 g ai/ha): 60
- phytotoxicity rating AMBEL ([13]; 250 g ai/ha): 90
- Post-emerge Herbicidal Activity SETVI ([14]; 63 g ai/ha): 0
- Post-emerge Herbicidal Activity SETVI ([14]; 250 g ai/ha): 0
- phytotoxicity rating SETVI ([14]; 63 g ai/ha): 20
- phytotoxicity rating SETVI ([14]; 250 g ai/ha): 50
- Post-emerge Herbicidal Activity IPOHE ([15]; 63 g ai/ha): 40
- Post-emerge Herbicidal Activity IPOHE ([15]; 250 g ai/ha): 80
- phytotoxicity rating IPOHE ([15]; 63 g ai/ha): 70
- phytotoxicity rating IPOHE ([15]; 250 g ai/ha): 90
- Post-emerge Herbicidal Activity SORHA ([16]; 63 g ai/ha): 0
- Post-emerge Herbicidal Activity SORHA ([16]; 250 g ai/ha): 0
- phytotoxicity rating SORHA ([16]; 63 g ai/ha): 20
- phytotoxicity rating SORHA ([16]; 250 g ai/ha): 20
- Post-emerge Herbicidal Activity CHEAL ([17]; 63 g ai/ha): 30
- Post-emerge Herbicidal Activity CHEAL ([17]; 250 g ai/ha): 40
- phytotoxicity rating CHEAL ([17]; 63 g ai/ha): 80
- phytotoxicity rating CHEAL ([17]; 250 g ai/ha): 100
- Post-emerge Herbicidal Activity DIGSA ([18]; 63 g ai/ha): 0
- Post-emerge Herbicidal Activity DIGSA ([18]; 250 g ai/ha): 0
- phytotoxicity rating DIGSA ([18]; 63 g ai/ha): 10
- phytotoxicity rating DIGSA ([18]; 250 g ai/ha): 20
- Post-emerge Herbicidal Activity AMARE ([19]; 63 g ai/ha): 40
- Post-emerge Herbicidal Activity AMARE ([19]; 250 g ai/ha): 70
- phytotoxicity rating AMARE ([19]; 63 g ai/ha): 85
- phytotoxicity rating AMARE ([19]; 250 g ai/ha): 100
- Post-emerge Herbicidal Activity CASOB ([20]; 63 g ai/ha): 10
- Post-emerge Herbicidal Activity CASOB ([20]; 250 g ai/ha): 10
- phytotoxicity rating CASOB ([20]; 63 g ai/ha): 40
- phytotoxicity rating CASOB ([20]; 250 g ai/ha): 70
- Post-emerge Herbicidal Activity ABUTH ([21]; 63 g ai/ha): 90
- Post-emerge Herbicidal Activity ABUTH ([21]; 250 g ai/ha): 95
- phytotoxicity rating ABUTH ([21]; 63 g ai/ha): 100
- phytotoxicity rating ABUTH ([21]; 250 g ai/ha): 100
- Post-emerge Herbicidal Activity CORN (crop damage) ([22]; 63 g ai/ha): 0
- Post-emerge Herbicidal Activity CORN (crop damage) ([22]; 250 g ai/ha): 10
- phytotoxicity rating CORN ([22]; 63 g ai/ha): 50
- phytotoxicity rating CORN ([22]; 250 g ai/ha): 60
- Post-emerge Herbicidal Activity RICE (crop damage) ([23]; 63 g ai/ha): 10
- Post-emerge Herbicidal Activity RICE (crop damage) ([23]; 250 g ai/ha): 30
- phytotoxicity rating RICE ([23]; 63 g ai/ha): 60
- phytotoxicity rating RICE ([23]; 250 g ai/ha): 90
